Reference: ChEMBL document CHEMBL1158501, “Synthesis and structure-activity relationships of novel furazan-3,4-diamide analogs as potent anti-cancer agents” (Bioorg Med Chem Lett, 2010)

Assays:
SW480 [1] = test: Inhibition of human SW480 cells after 48 hrs; assay type: functional, cell-based; conditions: SW480, 48 h
U-87 MG [2] = test: Inhibition of human U87MG cells after 48 hrs; assay type: functional, cell-based, U-87MG ATCC
U-87 MG [3] = test: Inhibition of human U87MG cells at >= IC50 after 48 hrs; assay type: functional, U-87MG ATCC
SW480 [4] = test: Inhibition of human SW480 cells at >= IC50 after 48 hrs; assay type: functional

Row | Compound | IC50 (SW480 [1]) [µM] | IC50 (U-87 MG [2]) [µM] | inhibition (INH) (U-87 MG [3]) [%] | inhibition (INH) (SW480 [4]) [%]
1 | O=C(Nc1nonc1NC(=O)C(Cl)(Cl)Cl)C(Cl)(Cl)Cl | > 200 | > 200 |  | 
2 | CC(C)=CC(=O)Nc1nonc1NC(=O)C=C(C)C | > 200 | > 200 |  | 
3 | O=C(CN1CCOCC1)Nc1nonc1NC(=O)CN1CCOCC1 | > 200 | > 200 |  | 
4 | O=C(Nc1nonc1NC(=O)C1CCCC1)C1CCCC1 | > 200 | > 200 |  | 
5 | O=C(Nc1n[nH]c(O)c1NC(=O)c1ccc(C(F)(F)F)cc1)c1ccc(C(F)(F)F)cc1 | > 200 | > 200 |  | 
6 | O=C(Nc1nonc1NC(=O)c1cccc(C(F)(F)F)c1)c1cccc(C(F)(F)F)c1 | > 10 | > 10 |  | 
7 | O=C(Nc1nonc1NC(=O)c1ccco1)c1ccco1 | > 200 | > 200 |  | 
8 | COc1ccc(C(=O)Nc2nonc2NC(=O)c2ccc(OC)cc2)cc1 | > 40 | > 40 |  | 
9 | Cc1ccc(C(=O)Nc2nonc2NC(=O)c2ccc(C)cc2)cc1 | > 40 | > 40 |  | 
10 | O=C(Nc1nonc1NC(=O)C1CCCCC1)C1CCCCC1 | > 20 | > 20 |  | 
11 | O=C(Nc1cscc1NC(=O)c1ccc(C(F)(F)F)cc1)c1ccc(C(F)(F)F)cc1 | > 8 | > 8 |  | 
12 | Nc1nonc1NC(=O)c1ccc(C(F)(F)F)cc1 | > 200 | > 200 |  | 

More lines, main results first:

Row | IC50 (SW480 [1]) [µM] | IC50 (U-87 MG [2]) [µM] | Compound | inhibition (INH) (U-87 MG [3]) [%] | inhibition (INH) (SW480 [4]) [%]
13 | 4 | 14 | O=C(Nc1nonc1NC(=O)c1ccc(Br)cc1)c1ccc(Br)cc1 | 77 | 50
14 | 22.9 | 20.6 | FC(F)(F)c1ccc(CNc2nonc2NCc2ccc(C(F)(F)F)cc2)cc1 |  | 
15 | 89.3 | > 100 | O=C(Nc1nonc1NC(=O)c1ccccc1C(F)(F)F)c1ccccc1C(F)(F)F |  | 
16 | 10 | 6 | O=C(Nc1nonc1NC(=O)c1ccc(F)cc1)c1ccc(F)cc1 |  | 50
17 | 11.2 | 14.6 | O=C(Nc1nonc1NC(=O)c1ccc(C(F)(F)F)cc1)c1ccc(C(F)(F)F)cc1 |  | 
18 | 71 | 70.7 | COc1cccc(C(=O)Nc2nonc2NC(=O)c2cccc(OC)c2)c1 |  | 
19 | 17.2 | 25.5 | O=C(Nc1nonc1NC(=O)c1c(F)c(F)c(F)c(F)c1F)c1c(F)c(F)c(F)c(F)c1F |  | 
20 | 137 | 122 | O=C(Nc1nonc1NC(=O)c1ccccc1)c1ccccc1 |  | 
21 | 10.8 | 17.7 | O=C(Nc1nonc1NC(=O)c1cc(C(F)(F)F)cc(C(F)(F)F)c1)c1cc(C(F)(F)F)cc(C(F)(F)F)c1 |  | 
22 | 7.4 | 17.1 | O=C(CCl)Nc1nonc1NC(=O)CCl |  | 
23 | 8 | 14 | O=C(Nc1nonc1NC(=O)c1ccc(Cl)cc1)c1ccc(Cl)cc1 | 70 | 50
24 | 39.7 | 24 | O=C(Nc1nonc1NC(=O)c1ccc(Cl)c(Cl)c1)c1ccc(Cl)c(Cl)c1 |  | 
25 | > 8 | > 8 | O=C(Nc1ccccc1NC(=O)c1ccc(C(F)(F)F)cc1)c1ccc(C(F)(F)F)cc1 |  | 
26 | 2 | 1 | O=C(Nc1nonc1NC(=O)c1ccc(I)cc1)c1ccc(I)cc1 | 70 | 50
27 | 18.5 | 18.2 | O=C(Nc1nonc1NCc1ccc(C(F)(F)F)cc1)c1ccc(C(F)(F)F)cc1 |  | 
